Assay results reported in patent US4217355A, “Amide therapeutic agents” (Pfizer Inc., priority 1978, dated 1980).

Tests used:
[1] = tested on: carrageenin-induced edema in the hind paw; assay: carrageenin-induced rat food edema test (inhibition of edema formation in the hind paw); type: in vivo, male albino rats; details: for % Inhibition of edema formation: 33 mg./kg., three hours after carrageenin injection
Experimental: A. Winter et al., Proc. Soc. Exp. Biol. Med., Vol. 111, p.
A. Winter et al., as earlier reported in the Proceedings of the Society of Experimental Biology and Medicine, Vol. 111, p. 544 (1962). In this test, anti-inflammatory activity is determined as the percent inhibition of edema formation in the hind paw of male albino rats (weighing 150-190 g.) in response to a sub-plantar injection of carrageenin. The carrageenin is injected as a 1% aqueous suspension (0.05 ml.) one hour after oral administration of the drug, which is normally given in the form of an aqueous solution. Edema formation is then assessed three hours after the carrageenin injection by measuring the volume of the injected paw initially as well as at the three-hour mark. The increase in volume three hours after carrageenin injection constitutes the individual response.
The following N-(2-thiazolyl)amides were tested for anti-inflammatory activity in rats, using the standard carrageen-ininduced rat food edema test, according to the procedure essentially described by C. A. Winter et al., as first reported in the Proceedings of the Society for Experimental Biology and Medicine, Vol. 111, p. 544 (1962). […]

[2] = tested on: murine thymus cells; assay: lymphocyte stimulation assay (LSA), in vitro lymphocyte proliferation of murine thymus cells cultured in the presence of Concanavalin A; type: cell-based, male C57B1/6 mice; details: in vitro; Con A present; 48 hours at 37° C.; score at drug level with maximum activity
Description: On the other hand, the activity of the compounds of the present invention, as immunoregulator agents, is based on a study of their ability to stimulate, in vitro, the lymphocyte proliferation of murine thymus cells cultured in the presence of Concanavalin A (Con A) by employing the general evaluation procedure of V. J. Merluzzi et al., as described in the Journal of Clinical and Experimental Immunology, Vol. 22, p. 486 (1975).
486 (1975). The cells were derived from male C57B1/6 mice of from 6-8 weeks age, purchased from the Jackson Laboratories of Bar Harbor, Maine and the Con A was obtained from Sigma Chemicals of St. Louis, Missouri. Each cell culture (consisting of 0.10 ml. thymus cells stock solution, 0.05 ml. of Con A stock solution and 0.05 ml. of drug solution) was performed in quadruplicate and cellular proliferation was measured, after 48 hours of incubation at 37° C., by pulsing each culture with ^3 H-thymidine (0.01 ml. of specific activity 1.9 C/mM, obtained from Schwarz-Mann, Inc. of Orangeburg, N.Y.) and then determining the incorporation of ^3 H-thymidine into cellular desoxyribonucleic acid (DNA) by an assessment of radioactivity using a liquid scintillation counter.

[3] = tested on: inflammation in adrenalectomized animals; assay: anti-inflammatory activity in adrenalectomized animals; type: in vivo, rats
Description: As previously indicated, the N-(2-thiazolyl)amide compounds of the present invention are all readily adapted to therapeutic use as anti-inflammatory agents and as immunoregulators, particularly in view of their ability to reduce the swelling and relieve the pain caused by arthritic and other inflammatory disorders that are normally associated with such basic ailments as rheumatoid arthritis and the like. […] A. Winter et al., Proc. Soc. Exp. Biol. Med., Vol. 111, p.

Compound | % Inhibition of edema formation ([1]; rat, oral) [%] | LSA Activity [2] | % Inhibition of edema formation (swelling) ([1]; rat, oral, 1.0 mg./kg.) [%] | oral dose levels at which the non-steroidal therapeutic effect is exhibited ([1]; rats, tested orally) [mg/kg] | anti-inflammatory activity in adrenalectomized animals [3]
CNCC(=O)Nc1nc(C)cs1 [X=CH3, R1=H, R2=methyl, N-(4-methyl-2-thiazolyl)-α-methylaminoacetamide] | 53 | +++ (those having an activity greater than levamisole (27,000±1,000 cpm) were scored as +++) | – | – | –
O=C(CNCc1ccccc1)Nc1nccs1 [X=H, R1=H, R2=benzyl, N-(2-thiazolyl)-α-benzylaminoacetamide] | 52 | +++ (those having an activity greater than levamisole (27,000±1,000 cpm) were scored as +++) | 35 | 0.33 to 33 | retaining its extremely potent anti-inflammatory activity in adrenalectomized animals to a significantly high degree
O=C(Nc1nccs1)C1CCCN1 (stereo not drawn) [X=H, R=2-pyrrolidinyl, N-(2-thiazolyl)pyrrolidine-2-carboxamide] | 48 | +++ (those having an activity greater than levamisole (27,000±1,000 cpm) were scored as +++) | – | – | –
